Data as given in patent US6545000B1, “[1,2,4]triazolo[1,5-c]pyrimidine derivatives” (Kyowa Hakko Kogyo Co., Ltd., priority 1998, dated 2003).

How the values were obtained:
[1] = target: T1, Rat A2A receptor (Rattus norvegicus, UniProt P30543); experiment: Adenosine A2A receptor binding test (3H-CGS 21680 binding); conditions: 10^−6 mol/L test compound, rat corpus striatum
T1 construct: from tissue; host or cells: rat corpus striatum membrane preparation
Protocol: The final precipitate was suspended in 50 mmol/L Tris-HCl buffer (containing 10 mmol/L magnesium chloride and 0.02 unit/mg tissue of adenosine deaminase (manufactured by Sigma Co.)) by adding the buffer to the final precipitate so as to give a tissue concentration of 5 mg (wet weight)/mL.
Inhibition ratio (%)={1−(amount of the binding in the presence of the test compound−amount of the non-specific binding)/(amount of the total binding−amount of the non-specific binding)}×100

[2] = system: CGS 21680-induced catalepsy; experiment: Activity on CGS 21680-induced catalepsy; format: in vivo, mouse; conditions: 10 mg/kg oral; for inhibition in vivo at 10 mg/kg: Mus musculus, 1 h, percentage reduction of total score vs control group, read-out: Remission ratio (%); for Total score: total catalepsy score of 10 mice (maximum 50 points), 1 hour after administration
Protocol: This test was carried out using 10 animals per group of male ddY mice of 5 week age (22 to 25 g in body weight, Japan SLC). […] One hour after the administration of the test compound, only forelimbs or only hindlimbs of each animal were laid on a vertically arranged stand made of acryl, having a size of 4.5 cm in height and 1.0 cm in width, to measure catalepsy symptoms. All of the test compounds were administered orally in a dose of 10 mg/kg.
(§1) The effect was judged by total catalepsy scores of 10 animals in one group (the maximum score is 50 points). When total score was 40 points or less, the activity of the compounds was judged positive. The number of animals showing remission of catalepsy was expressed by the number of cases in which the catalepsy score was 4 points or less in 10 cases. The catalepsy remission ratio was expressed as the percentage reduction of the total score in the test compound-administered group to the total score in the control group.

[3] = system: reserpine-induced catalepsy; experiment: Activity on reserpine-induced catalepsy; format: in vivo, mouse; conditions: oral; for Remission ratio (%): percentage reduction of total score vs control group; for Total score: total catalepsy score of 10 mice (maximum 50 points), reserpine 5 mg/kg s.c., 1 hour after administration
Protocol: This test was carried out using 10 animals per group of male ddY mice of 5 week age (22 to 24 g in body weight, Japan SLC). […] Reserpine (5 mg/kg: apoplon, Daiichi Pharmaceutical Co., Ltd.; diluted with distilled water) was subcutaneously administered, and catalepsy-inducing activity was observed from 18 hours after the administration. […] Each test compound was suspended in distilled water for injection containing 0.5% MC (manufactured by Otsuka Pharmaceutical Co., Ltd.) The suspension containing each of the test compounds or a solution containing no test compound (distilled water for injection containing 0.5% MC (manufactured by Otsuka Pharmaceutical Co., Ltd.); control) was orally administered (0.1 mL per 10 g mouse body weight) and, one hour after the administration of test compound, only forelimbs or only hindlimbs of each animal were laid on a stand having a size of 4.5 cm in height and 1.0 cm in width, to measure catalepsy symptoms.
as §1, with “maximum” for “maximum score”, “When the” for “When”, “test compound” for “compounds”

T1 sequence (P30543 whole entry): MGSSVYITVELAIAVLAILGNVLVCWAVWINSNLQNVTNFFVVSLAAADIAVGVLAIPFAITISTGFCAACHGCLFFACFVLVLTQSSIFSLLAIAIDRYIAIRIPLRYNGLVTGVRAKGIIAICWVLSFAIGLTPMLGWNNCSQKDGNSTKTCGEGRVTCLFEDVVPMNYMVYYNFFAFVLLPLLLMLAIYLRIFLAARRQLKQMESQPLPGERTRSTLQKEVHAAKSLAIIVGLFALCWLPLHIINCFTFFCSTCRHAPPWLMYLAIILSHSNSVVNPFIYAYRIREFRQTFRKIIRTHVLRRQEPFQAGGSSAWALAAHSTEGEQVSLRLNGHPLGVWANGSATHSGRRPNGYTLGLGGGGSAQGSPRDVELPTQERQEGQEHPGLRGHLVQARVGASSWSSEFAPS

Rat A2A receptor inhibition ratio (%) [1] [%]	melting point [°C]	SMILES	inhibition in vivo at 10 mg/kg [2] [%]	Total score [2]	Remission ratio (%) [3] [%]	Total score [3]
84	212	CCC(C)(O)CN1CCN(c2cc3nc(-c4ccco4)nn3c(N)n2)CC1 (centres unmarked) [Compound 2, 5-Amino-2-(2-furyl)-7-(4-(2-hydroxy-2-methylbutyl)piperazinyl)[1,2,4]triazolo[1,5-c]pyrimidine]	–	–	–	–
93	267 to 268	CC(O)(CN1CCN(c2cc3nc(-c4ccco4)nn3c(N)n2)CC1)c1ccccc1 (centres unmarked) [Compound 3, 5-Amino-2-(2-furyl)-7-(4-(2-hydroxy-2-phenylpropyl)piperazinyl)[1,2,4]triazolo[1,5-c]pyrimidine]	–	–	–	–
–	–	Nc1nc(N2CCN(CC3(O)CC3)CC2)cc2nc(-c3ccco3)nn12 [Compound 5, 5-Amino-2-(2-furyl)-7-(4-(1-hydroxycyclopropylmethyl)piperazinyl)[1,2,4]triazolo[1,5-c]pyrimidine]	90	5	76	12
–	–	COC(C)(C)CN1CCN(c2cc3nc(-c4ccco4)nn3c(N)n2)CC1 [Compound 6, 5-Amino-2-(2-furyl)-7-(4-(2-methoxy-2-methylpropyl)piperazinyl)[1,2,4]triazolo[1,5-c]pyrimidine]	84	8	78	11
–	–	CC(C)(O)CCN1CCN(c2cc3nc(-c4ccco4)nn3c(N)n2)CC1 [Compound 7, 5-Amino-2-(2-furyl)-7-(4-(3-hydroxy-3-methylbutyl)piperazinyl)[1,2,4]triazolo[1,5-c]pyrimidine]	–	8	–	23
84	196 to 197	CCC(C)(O)CCN1CCN(c2cc3nc(-c4ccco4)nn3c(N)n2)CC1 (centres unmarked) [Compound 8, 5-Amino-2-(2-furyl)-7-(4-(3-hydroxy-3-methylpentyl)piperazinyl)[1,2,4]triazolo[1,5-c]pyrimidine]	–	–	–	–
89	123 to 124	CC(O)(CCN1CCN(c2cc3nc(-c4ccco4)nn3c(N)n2)CC1)c1ccccc1 (centres unmarked) [Compound 9, 5-Amino-2-(2-furyl)-7-(4-(3-hydroxy-3-phenylbutyl)piperazinyl)[1,2,4]triazolo[1,5-c]pyrimidine]	–	–	–	–
87	–	CCC(O)(CC)CCN1CCN(c2cc3nc(-c4ccco4)nn3c(N)n2)CC1 [Compound 10, 5-Amino-2-(2-furyl)-7-(4-(3-ethyl-3-hydroxypentyl)piperazinyl)[1,2,4]triazolo[1,5-c]pyrimidine]	78	11	–	–
88	194 to 195	COC(C)(C)CCN1CCN(c2cc3nc(-c4ccco4)nn3c(N)n2)CC1 [Compound 11, 5-Amino-2-(2-furyl)-7-(4-(3-methoxy-3-methylbutyl)piperazinyl)[1,2,4]triazolo[1,5-c]pyrimidine]	–	–	–	–
–	–	CC(C)(O)CCCN1CCN(c2cc3nc(-c4ccco4)nn3c(N)n2)CC1 [Compound 13, 5-Amino-2-(2-furyl)-7-(4-(4-hydroxy-4-methylpentyl)piperazinyl)[1,2,4]triazolo[1,5-c]pyrimidine]	80	10	–	–
–	–	CC(C)(O)CCCCN1CCN(c2cc3nc(-c4ccco4)nn3c(N)n2)CC1 [Compound 14, 5-Amino-2-(2-furyl)-7-(4-(5-hydroxy-5-methylhexyl)piperazinyl)[1,2,4]triazolo[1,5-c]pyrimidine]	82	9	76	12
92	220 to 221	Nc1nc(N2CCN(Cc3cn4ccccc4n3)CC2)cc2nc(-c3ccco3)nn12 [Compound 15, 5-Amino-2-(2-furyl)-7-(4-(imidazo[1,2-a]pyridin-2-ylmethyl)piperazinyl)[1,2,4]triazolo[1,5-c]pyrimidine]	–	–	–	–
88	242 to 244	Nc1nc(N2CCN(Cc3cn4ccncc4n3)CC2)cc2nc(-c3ccco3)nn12 [Compound 16, 5-Amino-2-(2-furyl)-7-(4-(imidazo[1,2-a]pyrazin-2-ylmethyl)piperazinyl)[1,2,4]triazolo[1,5-c]pyrimidine]	–	–	–	–
90	244 to 246	Nc1nc(N2CCN(Cc3cn4cccnc4n3)CC2)cc2nc(-c3ccco3)nn12 [Compound 17, 5-Amino-2-(2-furyl)-7-(4-(imidazo[1,2-a]pyrimidin-2-ylmethyl)piperazinyl)[1,2,4]triazolo[1,5-c]pyrimidine]	–	–	–	–
96	284 to 286	Nc1nc(N2CCN(Cc3nc4ccccc4[nH]3)CC2)cc2nc(-c3ccco3)nn12 [Compound 18, 5-Amino-7-(4-(benzimidazol-2-ylmethyl)piperazinyl)-2-(2-furyl)[1,2,4]triazolo[1,5-c]pyrimidine]	–	–	–	–
95	–	Nc1nc(N2CCN(Cc3nc4ccccc4s3)CC2)cc2nc(-c3ccco3)nn12 [Compound 19, 5-Amino-7-(4-(benzothiazol-2-ylmethyl)piperazinyl)-2-(2-furyl)[1,2,4]triazolo[1,5-c]pyrimidine]	90	5	62	19
–	–	Nc1nc(N2CCN(Cc3ccc4nsnc4c3)CC2)cc2nc(-c3ccco3)nn12 [Compound 20, 5-Amino-7-(4-(benzo-2,1,3-thiadiazol-5-ylmethyl)piperazinyl)-2-(2-furyl)[1,2,4]triazolo[1,5-c]pyrimidine]	90	5	–	–
84	–	Cc1cc(CN2CCN(c3cc4nc(-c5ccco5)nn4c(N)n3)CC2C)no1 (centres unmarked) [Compound 22, 5-Amino-2-(2-furyl)-7-(3-methyl-4-(5-methylisoxazol-3-ylmethyl)piperazinyl)[1,2,4]triazolo[1,5-c]pyrimidine]	98	1	74	13
75	–	Cc1cc(C(C)N2CCN(c3cc4nc(-c5ccco5)nn4c(N)n3)CC2)no1 (centres unmarked) [Compound 23, 5-Amino-2-(2-furyl)-7-(4-(1-(5-methylisoxazol-3-yl)ethyl)piperazinyl)[1,2,4]triazolo[1,5-c]pyrimidine]	–	–	–	–
96	–	Cc1nocc1CN1CCN(c2cc3nc(-c4ccco4)nn3c(N)n2)CC1 [Compound 24, 5-Amino-2-(2-furyl)-7-(4-(3-methylisoxazol-4-ylmethyl)piperazinyl)[1,2,4]triazolo[1,5-c]pyrimidine]	96	2	72	14
95	244 to 246	Cc1onc(-c2ccccc2)c1CN1CCN(c2cc3nc(-c4ccco4)nn3c(N)n2)CC1 [Compound 25, 5-Amino-2-(2-furyl)-7-(4-(5-methyl-3-phenylisoxazol-4-ylmethyl)piperazinyl)[1,2,4]triazolo[1,5-c]pyrimidine]	–	–	–	–
94	287 to 288	Nc1nc(N2CCN(Cc3ccc4c(c3)OCC(=O)N4)CC2)cc2nc(-c3ccco3)nn12 [Compound 26, 5-Amino-2-(2-furyl)-7-(4-(3-oxo-3,4-dihydro-2H-benzo[1,4]oxazin-7-ylmethyl)piperazinyl)[1,2,4]triazolo[1,5-c]pyrimidine]	–	–	–	–
96	–	Nc1nc(N2CCN(Cc3ccc4c(c3)NC(=O)CO4)CC2)cc2nc(-c3ccco3)nn12 [Compound 27, 5-Amino-2-(2-furyl)-7-(4-(3-oxo-3,4-dihydro-2H-benzo[1,4]oxazin-6-ylmethyl)piperazinyl)[1,2,4]triazolo[1,5-c]pyrimidine]	92	4	–	–
